# Patent US11491122B2, “Use of a combination of Adelmidrol and hyaluronic acid in the treatment of pain caused by osteoarthritis and epithelial dysfunctions” (Epitech Group S.p.A., priority 2014, dated 2022)
# Assays:
# [1] = test system: HaCaT cells; experiment: Endogenous levels of AEA, 2-AG, PEA and OEA in HaCaT cells stimulated with Adelmidrol (LC-APCI-MS); type: cell-based, human; settings: Adelmidrol 10 μM, 24 hours
# Experimental: Cultured human keratinocytes, HaCaT, were grown in DMEM (Dulbecco's Modified Eagle Medium) supplemented with glutamine (2 mM), penicillin (400 U/ml), streptomycin ([…]), 10% FBS (Fetal Bovine Serum), in the presence of 5% CO2 and at 37° C. Thereafter, cells plated in 6-well multi-wells (9×10^5/well), once 70% confluence had been reached, were stimulated with Adelmidrol, 10 μM, or carrier (Ctrl, 0.05% methanol) for 24 hours in the presence of 5% CO2 at 37° C. After 24 hours, the cells and the surnatants were homogenized in 5 vol. of a chloroform/methanol TRIS-HCl 50 mM pH 7.4 (2:1:1) solution containing 10 pmol of [^2H]8anandamide (AEA) and 50 pmol of [^2H]52-arachidonoylglycerol (2-AG), [^2H]4palmitoylethanolamide (PEA) and [^2H]2oleoylethanolamide (OEA) (Bisogno et al., 1997). The organic-lipidic phase obtained from the four extractions with chloroform was subjected to purification by silica column chromatography, eluted by increasing concentrations of methanol in chloroform. The chloroform/methanol 90:10 fraction containing AEA, 2-AG, PEA and OEA was analyzed by liquid chromatography coupled to mass spectrometry using chemical ionization at atmospheric pressure (LC-APCI-MS) (Marsicano et al., 2002). The equipment used includes a Shimadzu HPLC (LC-10ADVP) coupled with a Shimadzu spectrometer (LCMS-2010) via a Shimadzu APCI interface. The ionization source temperature is 400° C. and a Phenomenex reverse phase HPLC column (C-18, 5 microns, 150×4.6 mm) is used. The mobile phase, consisting of a mixture of methanol/water/acetic acid (85/15/0.1%), passes through the column at a rate of 1 ml/min. The mass spectrum determination is carried out according to the selected ion monitoring (SIM) [Di Marzo et al. Nature 2001; 410:822-825]. Selected ions correspond to mass/charge values (m/z) of 356 and 348 (molecular ions of deuterated and non-deuterated AEA), 384.35 and 379.35 (molecular ions of deuterated and non-deuterated 2-AG), 304 and 300 (molecular ions of deuterated and non-deuterated PEA), 328 and 326 (molecular ions of deuterated and non-deuterated OEA). The quantity expressed as pmol/mg of lipid extract were compared using ANOVA followed by the Student-Newman-Keuls test.
# [2] = target: T1, FAAH (Rattus norvegicus, UniProt P97612); experiment: Maximum reduction of the activity of the PEA-degrading enzyme FAAH, rat brain membrane homogenates; type: biochemical
# T1 construct: was also measured using homogenates rat brain membranes; from tissue; host or cells: rat brain membrane homogenates
# T1 sequence (P97612 1-579): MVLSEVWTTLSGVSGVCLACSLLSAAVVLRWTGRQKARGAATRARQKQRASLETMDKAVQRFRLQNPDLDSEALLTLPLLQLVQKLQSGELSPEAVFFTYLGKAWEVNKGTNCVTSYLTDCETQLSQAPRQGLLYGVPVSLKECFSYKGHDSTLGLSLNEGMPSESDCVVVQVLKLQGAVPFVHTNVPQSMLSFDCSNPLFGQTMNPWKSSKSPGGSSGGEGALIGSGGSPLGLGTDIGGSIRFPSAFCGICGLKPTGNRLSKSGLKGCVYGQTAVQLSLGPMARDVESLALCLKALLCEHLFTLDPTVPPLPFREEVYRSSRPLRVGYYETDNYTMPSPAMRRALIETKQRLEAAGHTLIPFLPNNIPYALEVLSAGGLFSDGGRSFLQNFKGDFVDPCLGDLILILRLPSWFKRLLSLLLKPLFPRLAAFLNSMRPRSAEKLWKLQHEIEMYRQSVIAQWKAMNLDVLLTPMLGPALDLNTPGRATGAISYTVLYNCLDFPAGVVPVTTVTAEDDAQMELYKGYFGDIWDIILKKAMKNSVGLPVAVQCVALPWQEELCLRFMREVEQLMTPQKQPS
# Experimental: (§1) The maximum reduction of the activity of the palmitoylethanolamide-degrading enzymes (NAAA and FAAH) was also measured using homogenates rat brain membranes [Ueda N et al Chem Phys Lipids. 2000 November; 108(1-2):107-21; Tsuboi K. Et al J Biol Chem. 2005 March 25; 280(12):11082-92].
# [3] = target: T2, NAAA (Rattus norvegicus, UniProt Q5KTC7); experiment: Maximum reduction of the activity of the PEA-degrading enzyme NAAA, rat brain membrane homogenates; type: biochemical
# T2 construct: was also measured using homogenates rat brain membranes; from tissue; host or cells: rat brain membrane homogenates
# T2 sequence (Q5KTC7 131-362 limits assumed): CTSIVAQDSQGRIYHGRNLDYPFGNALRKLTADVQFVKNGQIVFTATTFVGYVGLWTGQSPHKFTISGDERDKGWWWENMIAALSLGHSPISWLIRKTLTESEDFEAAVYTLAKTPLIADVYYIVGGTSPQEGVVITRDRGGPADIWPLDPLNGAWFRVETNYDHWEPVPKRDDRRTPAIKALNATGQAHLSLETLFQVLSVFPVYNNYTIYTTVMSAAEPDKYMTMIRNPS
# T2 sequence (Q5KTC7 34-130 limits assumed): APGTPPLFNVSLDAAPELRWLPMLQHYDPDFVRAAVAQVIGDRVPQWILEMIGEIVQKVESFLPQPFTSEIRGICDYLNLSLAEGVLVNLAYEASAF
# Experimental: as §1
# [4] = test system: knee osteoarthritis induced by monosodium iodoacetate (MIA); experiment: Osteoarthritis induced by sodium monoiodoacetate: knee edema by digital caliper; type: in vivo, rat; settings: intra-articular Adelmidrol 1.5, 15 and 150 μg/injection, days 1, 8, 15; dose-dependent, evident at all analyzed times
# Experimental: (§2) The experiments were conducted using adult male rats of the Wistar strain (weight 200-250 grams) supplied by Harlan Italy, put in enclosures for a week in standard dietary and environmental conditions (temperature 21±1° C., humidity 60±10%, light 12 hours a day and water and food ad libitum) before being used in the experiments. […] MIA acts locally by inhibiting glycolysis, destroying the metabolism of chondrocytes and producing cartilage degeneration. At the time of the induction of osteoarthritis, MIA was dissolved in sterile saline. Before carrying out the intra-articular administration, the rats were anesthetized with pentobarbital sodium dissolved in saline at the dose of 60 mg/kg, in an administration volume of 0.2 ml/hg intraperitoneally (i.p.). […]
# In order to evaluate the formation of the edema in the right knee of the animals after MIA injection, a digital manual slide caliper (measuring capacity 0-150 mm; resolution: 0.01 mm; ROHS Compliant Electronic Digital Caliper—2 Biological Instruments SNC, Italy) was used. […] The edema was calculated as the difference between the […] of the right knee and left knee. […]
# The various parameters are measured at different times in relation to the parameter itself (e.g. inflammatory parameters are evaluated only in the first week since the MIA, pain is always evaluated before and 60 min. after the administration of Adelmidrol).
# [5] = test system: TNF-α; experiment: Osteoarthritis induced by sodium monoiodoacetate: TNF-α in the synovial fluid (ELISA); type: in vivo, rat; settings: intra-articular Adelmidrol, MIA osteoarthritic rats
# Experimental: as §2, with “(i.p.). The animals that received the MIA injection in their right knee represent the osteoarthritic (OA) group.” for “(i.p.).”
# The determination of TNF-α levels in the synovial fluid was made using an ELISA (Enzyme Linked Immuno-Sorbent-Assay) immunoenzymatic assay using a commercial kit from Biosource International Inc. The method uses a procedure in which the antigen is trapped between two layers of antibodies and for this reason it is called an ELISA sandwich. […] Following the enzymatic reaction, a product is generated whose staining intensity is measured spectrophotometrically and is directly proportional to the concentration of TNF-α in the samples. […]
# [6] = test system: patients with Bladder Pain Syndrome (BPS); experiment: Intravesical instillation in patients with Painful Bladder Syndrome (BPS); type: in vivo, human; settings: 7 female BPS patients
# Experimental: A sterile solution containing 2% Adelmidrol and 0.1% hyaluronic acid sodium salt was instilled into the bladder of no. 7 female patients through catheter after the complete emptying of the bladder itself. […] Most of the times, the patients had comorbidity with other pelvic diseases (vulvar vestibulitis 4/7; IBS (irritable bowel syndrome) 2/7; Fibromyalgia Syndrome 1/7, Recurrent Urinary Tract Infections (RUTI) 3/7).
# Treatments were carried out as attack therapy (one intravesical instillation per week for 8 weeks), followed by maintenance therapy (one instillation per month for 6 months).
# Using a dedicated diary, the frequency of urination (measured as the number of urinations in 12 hours), both during the day and at night, and the discomfort with bladder full were controlled, analyzing the pain, the feeling of weight and the burning in the pelvic area (all three parameters were measured by means of numerical scale VAS, before treatment, at the end of the attack therapy and at the end of the maintenance therapy).
# [7] = experimental animals, oral administration; cited from earlier work
# [8] = cited from earlier work
structure (smiles),measurement,setting,value
"O=C(CCCCCCCC(=O)NCCO)NCCO [Adelmidrol, N,N′-Bis(2-hydroxyethyl)nonandiamide]",levels of 2-AG in HaCaT cells,[1]; vs Ctrl,No significant variation
same,levels of AEA in HaCaT cells,[1]; vs Ctrl,No significant variation
same,levels of OEA in HaCaT cells,[1]; vs Ctrl,No significant variation
same,levels of PEA in HaCaT cells,"[1]; basal values 31.6±5.6, n=6, P<0.0001",66.4±9.6 pmol/mg of lipid extract
same,inhibition of the activity of FAAH (in words),[2],does not inhibit
same,inhibition at 50 µM,"[2]; Treatment with Adelmidrol 50 μM, Control 21.22 ± 3.18%, read-out: Maximum inhibition of the enzymatic activity (expressed as IC50), Enzyme FAAH",20.1 ± 4.12%
same,inhibition of the activity of NAAA (in words),[3],does not inhibit
same,inhibition at 50 µM,"[3]; Treatment with Adelmidrol 50 μM, Control 11.43 ± 1.72%, read-out: Maximum inhibition of the enzymatic activity (expressed as IC50), Enzyme NAAA",11.3 ± 2.26%
same,anti-inflammatory effect (knee edema),[4],strong anti-inflammatory effect
same,levels of TNF-α in the synovial fluid,[5],reduction
same,"all the parameters evaluated (urination frequency, pain, weight, burning) after treatment",[6],marked improvement
same,LD50,[7],2-3 g/kg body weight
same,solubility in lipids,[8],good solubility in lipids
same,solubility in water,[8],high solubility in water
